Measurements as given in US6979470B2 (priority 2001, dated 2005).

Assays:
COX-2 [1] = target: T1, COX-2 (Mus musculus, UniProt Q05769); assay: cell-based; type: cell-based
T1 construct: LPS, which was used to induce the expression of COX-2 in the RAW 264.7 cells; host or cells: RAW 264.7
T1 sequence (Q05769 18-604): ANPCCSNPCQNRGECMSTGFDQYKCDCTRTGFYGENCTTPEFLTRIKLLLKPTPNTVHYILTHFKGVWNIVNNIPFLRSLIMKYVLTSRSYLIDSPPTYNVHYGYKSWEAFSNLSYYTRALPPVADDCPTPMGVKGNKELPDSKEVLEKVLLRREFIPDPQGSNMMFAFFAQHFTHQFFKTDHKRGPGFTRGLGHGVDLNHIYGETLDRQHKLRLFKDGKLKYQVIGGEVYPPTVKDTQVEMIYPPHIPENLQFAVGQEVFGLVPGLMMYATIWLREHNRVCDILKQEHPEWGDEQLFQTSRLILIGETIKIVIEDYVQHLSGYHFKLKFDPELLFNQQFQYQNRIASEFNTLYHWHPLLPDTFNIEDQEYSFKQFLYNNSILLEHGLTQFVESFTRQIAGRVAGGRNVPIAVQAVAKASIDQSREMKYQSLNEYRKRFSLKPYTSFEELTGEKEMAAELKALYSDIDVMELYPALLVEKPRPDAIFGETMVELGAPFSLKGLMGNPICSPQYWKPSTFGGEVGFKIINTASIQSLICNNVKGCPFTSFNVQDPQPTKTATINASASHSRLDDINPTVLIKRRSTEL
Procedure: On day one of the experiment, the log phase 264.7 cells were plated at 8×10^4 cells per well in 0.2 mL growth medium per well in a 96-well tissue culture plate. After 6 to 8 hours post plating, 100 μL of growth medium from each well was removed and replaced with 100 μL fresh medium. […] It was mixed until dissolved and stored at 4° C. Immediately before use, it was thawed at room temperature or in a 37° C. water bath. A new solution was prepared every 60 days.
On day two of the experiment, the test materials were prepared as 1000× stock in DMSO. For example, if the final concentration of the test material was to be 10 μg/mL, a 10 mg/mL stock was prepared by dissolving 10 mg of the test material in 1 mL of DMSO. Fresh test materials were prepared on day 2 of the experiment. In 1.7 mL microfuge tubes, 1 mL DMEM without FBS was added to obtain test concentrations of 0.05, 0.10, 0.5, and 1.0 μg/mL. 2 μL of the 1000×DMSO stock of the test material was added to the 1 mL of medium without FBS. The tube contained the final concentration of the test material was concentrated 2-fold. The tube was placed in incubator for 10 minutes to equilibrate.
One-hundred mL of medium was removed from each well of the cell plates prepared on day one. One-hundred mL of equilibrated 2× final concentration the test compounds were added to cells and incubated for 90 minutes. […]

COX-2 [2] = settings: reported, specificity for COX-2 over COX-1; cited from earlier work

SMILES	SPECIFICIY COX-1/COX-2 (COX-2 [1]; COX-1 IC50 (enzyme) / COX-2 IC50 (RAW 264.7))	IC50 (COX-2 [1]; second compound alone, PGE2 production by COX-2, RAW 264.7 cells, 24 h LPS) [µM]	COX-2 specificity (COX-2 [2])
C=C1CC[C@@H]2[C@](C)(CO)[C@H](O)CC[C@@]2(C)[C@@H]1C/C=C1/C(=O)OC[C@H]1O [Andrographolide]	5.2	762	
CC(=O)Oc1ccccc1C(=O)O [aspirin]			0.6
